According to patent publication US6541515B2, “HIV integrase inhibitors” (Merck & Co., Inc., priority 2000, dated 2003):

Target: recombinant integrase (HIV integrase) (Human immunodeficiency virus type 1 group M subtype B, UniProt P04585)
Assay: HIV integrase assay: strand transfer catalyzed by recombinant integrase
Type: biochemical
Conditions: strand transfer activity
Description: HIV Integrase Assay: Strand Transfer Catalyzed by Recombinant Integrase and Preintegration Complexes
Assays for the strand transfer activity of integrase can be conducted according to Wolfe et al., J. Virol. 1996, 70: 1424 and Farnet and Bushman, Cell 1997, 88: 483 for recombinant integrase and preintegration complexes, respectively, hereby incorporated by reference. Compound A was tested in the recombinant integrase assay and found to have an IC50 of about 20 micromolar.

CCCCC(C)C1=C(O)C(=O)C2CC(C)CC(C(=O)O)C2C1(C)C(=O)CCO (stereo not shown) [Compound A]
IC50: ~20 µM
